Assay results from paper PMC5218480 (PLoS ONE, 2017).

System: MV-4-11 cells
Test: Gene expression microarray analysis (Affymetrix PrimeView) and GSEA
Assay type: cell-based, human
Set-up: RFU PODN (11730768_x_at) / Fold change /veh PODN (11730768_x_at) / RFU LINC00158 (11744669_a_at) / Fold change /veh LINC00158 (11744669_a_at) / RFU DUSP10 (11751237_a_at) / Fold change /veh DUSP10 (11751237_a_at) / RFU ID3 (11757404_x_at) / Fold change /veh ID3 (11757404_x_at) / RFU PLEKHG5 (11737974_s_at) / Fold change /veh PLEKHG5 (11737974_s_at) / RFU LRRC4B (11730491_at) / Fold change /veh LRRC4B (11730491_at) / RFU GIMAP4 (11747438_a_at) / Fold change /veh GIMAP4 (11747438_a_at) / RFU KRT8 (11758183_x_at) / Fold change /veh KRT8 (11758183_x_at) / RFU CNN1 (11734310_a_at) / Fold change /veh CNN1 (11734310_a_at) / RFU VPS37D (11726825_at) / Fold change /veh VPS37D (11726825_at) / RFU C10orf10 (11716522_x_at) / Fold change /veh C10orf10 (11716522_x_at) / RFU KIR2DL2 /// KIR2DL4 /// KIR2DL5A /// KIR2DL5B /// KIR2DS1 /// KIR2DS2 /// KIR2DS3 /// KIR2DS4 /// KIR3DL3 /// KIR3DL3 /// KIR3DS1 (11738374_at) / Fold change /veh KIR2DL2 /// KIR2DL4 /// KIR2DL5A /// KIR2DL5B /// KIR2DS1 /// KIR2DS2 /// KIR2DS3 /// KIR2DS4 /// KIR3DL3 /// KIR3DL3 /// KIR3DS1 (11738374_at) / RFU C1QL1 (11718748_at) / Fold change /veh C1QL1 (11718748_at) / RFU TMPRSS4 (11747572_a_at) / Fold change /veh TMPRSS4 (11747572_a_at) / RFU HAMP (11756126_x_at) / Fold change /veh HAMP (11756126_x_at) / RFU RNFT2 (11725882_a_at) / Fold change /veh RNFT2 (11725882_a_at) / RFU NR4A2 (11747474_a_at) / Fold change /veh NR4A2 (11747474_a_at) / RFU ABCC12 (11746883_a_at) / Fold change /veh ABCC12 (11746883_a_at) / RFU TMEM136 (11760407_x_at) / Fold change /veh TMEM136 (11760407_x_at) / RFU CLDN22 /// WWC2 (11732394_at) / Fold change /veh CLDN22 /// WWC2 (11732394_at) / RFU HLA-DPB1 (11760878_x_at) / Fold change /veh HLA-DPB1 (11760878_x_at) / RFU SPINT1 (11716480_a_at) / Fold change /veh SPINT1 (11716480_a_at) / RFU GAP43 (11754022_s_at) / Fold change /veh GAP43 (11754022_s_at) / RFU A4GNT (11735810_at) / Fold change /veh A4GNT (11735810_at) / RFU PRB3 (11715151_x_at) / Fold change /veh PRB3 (11715151_x_at) / RFU TUBB4B (11761932_at) / Fold change /veh TUBB4B (11761932_at) / RFU CAPN14 (11732068_a_at) / Fold change /veh CAPN14 (11732068_a_at) / RFU TMCC2 (11721928_a_at) / Fold change /veh TMCC2 (11721928_a_at) / RFU IRGQ (11745062_a_at) / Fold change /veh IRGQ (11745062_a_at) / RFU FAM174B (11720279_a_at) / Fold change /veh FAM174B (11720279_a_at) / RFU TMPRSS4 (11748680_a_at) / Fold change /veh TMPRSS4 (11748680_a_at) / RFU FAM212B (11763350_a_at) / Fold change /veh FAM212B (11763350_a_at) / RFU PLEKHG5 (11743358_a_at) / Fold change /veh PLEKHG5 (11743358_a_at) / RFU ZSCAN30 (11745921_a_at) / Fold change /veh ZSCAN30 (11745921_a_at) / RFU CMKLR1 (11741424_a_at) / Fold change /veh CMKLR1 (11741424_a_at) / RFU LOC101060620 /// MAPK8IP1 (11723275_at) / Fold change /veh LOC101060620 /// MAPK8IP1 (11723275_at) / RFU SPTSSB (11747773_x_at) / Fold change /veh SPTSSB (11747773_x_at) / RFU PRSS12 (11739890_at) / Fold change /veh PRSS12 (11739890_at) / RFU BIN1 (11741810_x_at) / Fold change /veh BIN1 (11741810_x_at) / RFU WNT11 (11732464_a_at) / Fold change /veh WNT11 (11732464_a_at) / RFU C10orf10 (11716521_a_at) / Fold change /veh C10orf10 (11716521_a_at) / RFU C5orf56 (11738089_at) / Fold change /veh C5orf56 (11738089_at) / RFU CYB561 (11721691_x_at) / Fold change /veh CYB561 (11721691_x_at) / RFU ANKRD19P (11752326_a_at) / Fold change /veh ANKRD19P (11752326_a_at) / RFU OR2T12 /// OR2T33 /// OR2T8 (11738714_s_at) / Fold change /veh OR2T12 /// OR2T33 /// OR2T8 (11738714_s_at) / RFU VCAN (11748164_a_at) / Fold change /veh VCAN (11748164_a_at) / RFU JSRP1 (11732532_at) / Fold change /veh JSRP1 (11732532_at) / RFU KRTAP10-11 (11738290_x_at) / Fold change /veh KRTAP10-11 (11738290_x_at) / RFU MYO3A (11730013_a_at) / Fold change /veh MYO3A (11730013_a_at) / RFU EBF3 (11725865_a_at) / Fold change /veh EBF3 (11725865_a_at) / RFU CAMK2N1 (11719241_x_at) / Fold change /veh CAMK2N1 (11719241_x_at) / RFU C5orf56 (11738088_a_at) / Fold change /veh C5orf56 (11738088_a_at) / RFU OLFML3 (11715873_a_at) / Fold change /veh OLFML3 (11715873_a_at) / RFU LOC100653217 /// NTM (11731650_a_at) / Fold change /veh LOC100653217 /// NTM (11731650_a_at) / RFU MAPK11 (11762145_a_at) / Fold change /veh MAPK11 (11762145_a_at) / RFU FIZ1 (11724087_x_at) / Fold change /veh FIZ1 (11724087_x_at) / RFU OASL (11726364_x_at) / Fold change /veh OASL (11726364_x_at) / RFU SOX15 (11748057_x_at) / Fold change /veh SOX15 (11748057_x_at) / RFU CD79A (11719716_a_at) / Fold change /veh CD79A (11719716_a_at) / RFU HIST1H1D (11736915_at) / Fold change /veh HIST1H1D (11736915_at) / RFU CASKIN2 (11723855_a_at) / Fold change /veh CASKIN2 (11723855_a_at) / RFU LOC730098 (11760151_x_at) / Fold change /veh LOC730098 (11760151_x_at) / RFU OR4N2 (11742367_at) / Fold change /veh OR4N2 (11742367_at) / RFU PRRT2 (11749266_a_at) / Fold change /veh PRRT2 (11749266_a_at) / RFU SNX32 (11753110_a_at) / Fold change /veh SNX32 (11753110_a_at) / RFU CDHR5 (11726645_a_at) / Fold change /veh CDHR5 (11726645_a_at) / RFU RCAN1 (11760418_a_at) / Fold change /veh RCAN1 (11760418_a_at) / RFU FAM167A (11723789_a_at) / Fold change /veh FAM167A (11723789_a_at) / RFU FAM26E (11764081_at) / Fold change /veh FAM26E (11764081_at) / RFU ISYNA1 (11749810_s_at) / Fold change /veh ISYNA1 (11749810_s_at) / RFU ACY1 (11761880_at) / Fold change /veh ACY1 (11761880_at) / RFU 11764098_at / Fold change /veh 11764098_at / RFU SAMD14 (11745864_x_at) / Fold change /veh SAMD14 (11745864_x_at) / RFU NPB (11741838_a_at) / Fold change /veh NPB (11741838_a_at) / RFU TMPRSS6 (11731388_a_at) / Fold change /veh TMPRSS6 (11731388_a_at) / RFU KRTAP10-2 (11738614_at) / Fold change /veh KRTAP10-2 (11738614_at) / RFU ARHGAP8 /// PRR5-ARHGAP8 (11727945_x_at) / Fold change /veh ARHGAP8 /// PRR5-ARHGAP8 (11727945_x_at) / RFU KRTAP5-7 /// NADSYN1 (11734609_at) / Fold change /veh KRTAP5-7 /// NADSYN1 (11734609_at) / RFU RASL12 (11751679_a_at) / Fold change /veh RASL12 (11751679_a_at) / RFU CDKN2B (11736163_a_at) / Fold change /veh CDKN2B (11736163_a_at) / RFU PRF1 (11729649_at) / Fold change /veh PRF1 (11729649_at) / RFU, ZNF638 /// ZNF638-IT1 / Fold change vs veh, ZNF638 /// ZNF638-IT1 / RFU, PANK3 / Fold change vs veh, PANK3 / RFU, SH3YL1 / Fold change vs veh, SH3YL1 / RFU, ZEB2 / Fold change vs veh, ZEB2 / RFU, NRIP1 / Fold change vs veh, NRIP1 / RFU, PTTG1IP / Fold change vs veh, PTTG1IP / RFU, CAPN2 / Fold change vs veh, CAPN2 / RFU, MED14 / Fold change vs veh, MED14 / RFU, SNORA58 / Fold change vs veh, SNORA58 / RFU, C1orf63 / Fold change vs veh, C1orf63 / RFU, LRRFIP1 / Fold change vs veh, LRRFIP1 / RFU, NDUFAF7 / Fold change vs veh, NDUFAF7 / RFU, SLC12A2 / Fold change vs veh, SLC12A2 / RFU, IBTK / Fold change vs veh, IBTK / RFU, ESF1 / Fold change vs veh, ESF1 / Fold change vs veh, TMEM50B / RFU, TAOK1 / Fold change vs veh, TAOK1 / RFU, ACBD3 / Fold change vs veh, ACBD3 / RFU, TMA16 / Fold change vs veh, TMA16 / RFU, RWDD3 / Fold change vs veh, RWDD3 / RFU, BCAT1 / Fold change vs veh, BCAT1 / RFU, EDEM3 / Fold change vs veh, EDEM3 / RFU, TMEM33 / Fold change vs veh, TMEM33 / RFU, WDR75 / Fold change vs veh, WDR75 / RFU, AHCTF1 / Fold change vs veh, AHCTF1 / RFU, TFRC / Fold change vs veh, TFRC / RFU, ZDHHC17 / Fold change vs veh, ZDHHC17 / RFU, NOM1 / Fold change vs veh, NOM1 / RFU, ARL8B / Fold change vs veh, ARL8B / RFU, ZBTB11 / Fold change vs veh, ZBTB11 / RFU, TAMM41 / Fold change vs veh, TAMM41 / RFU, KIAA1704 /// LOC100996395 / Fold change vs veh, KIAA1704 /// LOC100996395 / RFU, ING1 / Fold change vs veh, ING1 / RFU, TRMT61B / Fold change vs veh, TRMT61B / RFU, FUBP3 / Fold change vs veh, FUBP3 / RFU, TP53 / Fold change vs veh, TP53 / RFU, TNKS2 / Fold change vs veh, TNKS2 / RFU, ZFP14 / Fold change vs veh, ZFP14 / RFU, ACTR2 / Fold change vs veh, ACTR2 / RFU, PPP3R1 / Fold change vs veh, PPP3R1 / RFU, PIK3R1 / Fold change vs veh, PIK3R1 / RFU, HNRNPA1 / Fold change vs veh, HNRNPA1 / RFU, RNF170 / Fold change vs veh, RNF170 / RFU, ZNF28 / Fold change vs veh, ZNF28 / RFU, RNGTT / Fold change vs veh, RNGTT / RFU, OGT / Fold change vs veh, OGT / RFU, BRD1 / Fold change vs veh, BRD1 / RFU, MARS / Fold change vs veh, MARS / RFU, ZNF655 / Fold change vs veh, ZNF655 / RFU, FAHD1 / Fold change vs veh, FAHD1 / RFU, BDP1 / Fold change vs veh, BDP1 / RFU, LRRCC1 / Fold change vs veh, LRRCC1 / RFU, ARID1A / Fold change vs veh, ARID1A / RFU, ZNF146 / Fold change vs veh, ZNF146 / RFU, ZNF330 / Fold change vs veh, ZNF330 / RFU, GPN3 / Fold change vs veh, GPN3 / RFU, C9orf123 / Fold change vs veh, C9orf123 / RFU, N4BP2L2 / Fold change vs veh, N4BP2L2 / RFU, ARFIP1 / Fold change vs veh, ARFIP1 / RFU, FAM179B / Fold change vs veh, FAM179B / RFU, BCL10 / Fold change vs veh, BCL10 / RFU, UHRF1BP1L / Fold change vs veh, UHRF1BP1L / RFU, BET1 / Fold change vs veh, BET1 / RFU, CNOT2 / Fold change vs veh, CNOT2 / RFU, ZNF268 / Fold change vs veh, ZNF268 / Fold change vs veh, ZNF507 / RFU, DGCR2 / Fold change vs veh, DGCR2 / RFU, WDSUB1 / Fold change vs veh, WDSUB1 / Fold change vs veh, HSP90B1 /// MIR3652 / RFU, ADSS / Fold change vs veh, ADSS / RFU, GK / Fold change vs veh, GK / RFU, ZNF148 / Fold change vs veh, ZNF148 / RFU, TAF9 / Fold change vs veh, TAF9 / RFU, SLC1A5 / Fold change vs veh, SLC1A5 / RFU, SLMO2 / Fold change vs veh, SLMO2 / RFU, ABCC4 / Fold change vs veh, ABCC4 / RFU, LOC101060439 /// RAP1B / Fold change vs veh, LOC101060439 /// RAP1B / RFU, RFX7 / Fold change vs veh, RFX7 / RFU, GTPBP10 / Fold change vs veh, GTPBP10 / RFU, CNEP1R1 / Fold change vs veh, CNEP1R1 / RFU, BIVM-ERCC5 /// ERCC5 / Fold change vs veh, BIVM-ERCC5 /// ERCC5 / RFU, ILF3 / Fold change vs veh, ILF3 / RFU 11762660_at / Fold change /veh 11762660_at / RFU VCAN (11757783_s_at) / Fold change /veh VCAN (11757783_s_at) / RFU DDX43 (11728927_at) / Fold change /veh DDX43 (11728927_at) / RFU KRT8 (11758188_x_at) / Fold change /veh KRT8 (11758188_x_at) / RFU NKD1 (11759106_at) / Fold change /veh NKD1 (11759106_at) / RFU SRD5A1 (11742802_a_at) / Fold change /veh SRD5A1 (11742802_a_at) / RFU TPSAB1 /// TPSB2 (11721975_s_at) / Fold change /veh TPSAB1 /// TPSB2 (11721975_s_at) / RFU GSTM3 (11746129_a_at) / Fold change /veh GSTM3 (11746129_a_at) / RFU IL23R (11737362_x_at) / Fold change /veh IL23R (11737362_x_at) / RFU TMEM51 (11727254_a_at) / Fold change /veh TMEM51 (11727254_a_at) / RFU PIWIL2 (11732686_x_at) / Fold change /veh PIWIL2 (11732686_x_at) / RFU ORM1 (11744905_x_at) / Fold change /veh ORM1 (11744905_x_at) / RFU CCDC152 (11743942_at) / Fold change /veh CCDC152 (11743942_at) / RFU ECM1 (11717891_a_at) / Fold change /veh ECM1 (11717891_a_at) / RFU IL23R (11748794_a_at) / Fold change /veh IL23R (11748794_a_at) / RFU TNFAIP8L3 (11732012_x_at) / Fold change /veh TNFAIP8L3 (11732012_x_at) / RFU MBOAT4 (11741988_at) / Fold change /veh MBOAT4 (11741988_at) / RFU 11764193_at / Fold change /veh 11764193_at / RFU TMEM53 (11763286_at) / Fold change /veh TMEM53 (11763286_at) / RFU MAGEB2 (11727129_at) / Fold change /veh MAGEB2 (11727129_at) / RFU TMEM200A (11744735_a_at) / Fold change /veh TMEM200A (11744735_a_at) / RFU CCDC152 (11751479_a_at) / Fold change /veh CCDC152 (11751479_a_at) / RFU FAM211A (11726209_a_at) / Fold change /veh FAM211A (11726209_a_at) / RFU RGS16 (11746705_a_at) / Fold change /veh RGS16 (11746705_a_at) / RFU VCAN (11755009_s_at) / Fold change /veh VCAN (11755009_s_at) / RFU RHOB (11743442_s_at) / Fold change /veh RHOB (11743442_s_at) / RFU RGS16 (11720943_a_at) / Fold change /veh RGS16 (11720943_a_at) / RFU RGS16 (11720944_at) / Fold change /veh RGS16 (11720944_at) / RFU, VPS4B / Fold change vs veh, VPS4B / RFU, CREB1 / Fold change vs veh, CREB1 / RFU, DNAJC13 / Fold change vs veh, DNAJC13 / RFU, GNAQ / Fold change vs veh, GNAQ / RFU, CDK5R1 / Fold change vs veh, CDK5R1 / RFU, ZRANB3 / Fold change vs veh, ZRANB3 / RFU, CUL4A / Fold change vs veh, CUL4A / RFU, CCNY / Fold change vs veh, CCNY / RFU, UFL1 / Fold change vs veh, UFL1 / RFU, COG3 / Fold change vs veh, COG3 / RFU, DIAPH2 / Fold change vs veh, DIAPH2 / RFU, SKA2 / Fold change vs veh, SKA2 / RFU, AFF3 / Fold change vs veh, AFF3 / RFU, LMF1 / Fold change vs veh, LMF1 / RFU, IPO11 / Fold change vs veh, IPO11 / RFU, DFFB / Fold change vs veh, DFFB / RFU, FOXP1 / Fold change vs veh, FOXP1 / RFU, CARD8 / Fold change vs veh, CARD8 / RFU, STRN3 / Fold change vs veh, STRN3 / RFU, ADK / Fold change vs veh, ADK / RFU, RASSF2 / Fold change vs veh, RASSF2 / RFU, WIPF1 / Fold change vs veh, WIPF1 / RFU, LARP1B / Fold change vs veh, LARP1B / RFU, RASA1 / Fold change vs veh, RASA1 / RFU, RB1 / Fold change vs veh, RB1 / RFU, PPFIA1 / Fold change vs veh, PPFIA1 / RFU, MAT2A / Fold change vs veh, MAT2A / RFU, CCT5 / Fold change vs veh, CCT5 / RFU, WDR92 / Fold change vs veh, WDR92 / RFU, CUX1 / Fold change vs veh, CUX1 / RFU, TTC7A / Fold change vs veh, TTC7A / RFU, TMEM135 / Fold change vs veh, TMEM135 / RFU, DEPTOR / Fold change vs veh, DEPTOR / RFU, CPM / Fold change vs veh, CPM / RFU, DNAJB6 / Fold change vs veh, DNAJB6 / RFU, CACNA2D3 / Fold change vs veh, CACNA2D3 / RFU, DTX4 / Fold change vs veh, DTX4 / RFU, TFCP2 / Fold change vs veh, TFCP2 / RFU, GMCL1 /// GMCL1P1 / Fold change vs veh, GMCL1 /// GMCL1P1 / RFU, AEBP2 / Fold change vs veh, AEBP2 / RFU, SNHG1 /// SNORD22 /// SNORD25 /// SNORD26 /// SNORD27 /// SNORD28 /// SNORD29 /// SNORD31 / Fold change vs veh, SNHG1 /// SNORD22 /// SNORD25 /// SNORD26 /// SNORD27 /// SNORD28 /// SNORD29 /// SNORD31 / Fold change (Aza/veh), C12orf56 (ProbeSet 11735607_a_at) / Fold change (ACY-1035/veh), C12orf56 (ProbeSet 11735607_a_at) / Fold change (Aza/veh), FGFR1OP (ProbeSet 11751329_s_at) / Fold change (ACY-1035/veh), FGFR1OP (ProbeSet 11751329_s_at) / Fold change (Aza/veh), VPS36 (ProbeSet 11739960_a_at) / Fold change (ACY-1035/veh), VPS36 (ProbeSet 11739960_a_at) / RFU SYPL1 (11715823_x_at) / Fold change /veh SYPL1 (11715823_x_at) / RFU IGFBP7 (11715501_s_at) / Fold change /veh IGFBP7 (11715501_s_at) / RFU REEP3 (11722064_at) / Fold change /veh REEP3 (11722064_at) / RFU IGLL1 (11728026_x_at) / Fold change /veh IGLL1 (11728026_x_at): dose or concentration left out as unconfirmed
Settings: MV-4-11 cells, 48 hours

Nc1ccc(-c2cccs2)cc1NC(=O)c1ccc2c(c1)cc(C1CC1)n2CCN1CCOCC1 [ACY-1035]
RFU IGLL1 (11728026_x_at): 5.54 RFU
